What was measured:
mice of the CD-1 line [1] = experiment: General toxic effect (LD50) in mice; conditions: for LD50 (in mice, i.p.): intraperitoneal; for LD50 (in mice, p.o.): oral; for Times less toxic than donepezil hydrochloride, oral: ratio of LD50, administered orally; for Times less toxic than donepezil hydrochloride, intraperitoneal / Times less toxic than the free base: ratio of LD50, intraperitoneal
Protocol: Ed. A. N. Mironova] on mice of the CD-1 line (“Puschino” Nursery, Moscow Region), both males and females, weighing 19.0±2.0 g, kept on a standard diet in the day/night lighting regimen (12 hours) at 22° C.

[2] = test system: transgenic mice with genotype B6C3-Tg(APP695)85Dbo Tg(PSENI)85Dbo; experiment: "Rewarded alternation" test in a T-maze, genetic model of Alzheimer's disease; type: in vivo; conditions: administered orally, compared with healthy animals
Excerpt: At the beginning of the research, the age of the transgenic mice was 9 months.
At the beginning of the research, the age of the transgenic mice was 8 months.

[3] = test system: transgenic mice of the B6C3-Tg(APP695)85Dbo Tg(PSENI)85Dbo genotype; experiment: Number of amyloid plaques in the cortex, Thioflavin S staining of brain sections; type: in vivo; conditions: administered orally
Protocol: The line was purchased at The Jackson Laboratory (USA) and kept in the “Pushchino” nursery for laboratory animals Pushchino, Moscow Region). At the beginning of the research, the age of the transgenic mice was 9 months.
(§1) An equivalent amount of water (Water (Tg+)) was orally administered to control groups of transgenic mice.
Amyloid-beta deposits were evaluated after sacrifice on mouse brain sections (20 μm) using the Thioflavin S fluorescent dye and the Olympus BX51W1 fluorescence microscope, by the method described in the article [http://library.med.utah.edu/WebPath/histhtml/manuals/manuals.html].
The line was purchased at The Jackson Laboratory (USA) and kept in the “Pushchino” nursery for laboratory animals Pushchino, Moscow Region). At the beginning of the research, the age of the transgenic mice was 8 months.
as §1

[4] = Solubility in water and organic solvents; type: physicochemical
mice of the CD-1 line [5] = conditions: in mice, i.p.; prior-art free base; cited from earlier work
[6] = test system: transgenic mice of the B6C3-Tg(APP695)85Dbo Tg(PSENI)85Dbo genotype; conditions: 5 mg/kg daily intraperitoneal, RU patent No. 2565756; cited from earlier work

CCN(CCCCCn1c(C)cc(=O)n(CCCCCN(CC)Cc2ccccc2[N+](=O)[O-])c1=O)Cc1ccccc1[N+](=O)[O-].Cl.Cl [Compound (2), 1,3-bis[5-(ortho-nitrobenzylethylamino)pentyl]-6-methyluracil dihydrochloride]
LD50 (in mice, i.p.) (mice of the CD-1 line [1]): 150 mg/kg | LD50 (in mice, p.o.) (mice of the CD-1 line [1]): 290 mg/kg | Times less toxic than donepezil hydrochloride, oral (mice of the CD-1 line [1]): 6 times | Times less toxic than donepezil hydrochloride, intraperitoneal (mice of the CD-1 line [1]): 30 times | Times less toxic than the free base (mice of the CD-1 line [1]): ~3 times | Correction of memory impairment [2]: effective for correcting memory impairment | Effect on the number of amyloid plaques in the cortex [3]: more effective than donepezil hydrochloride for preventing the formation of amyloid plaques | Solubility [4]: soluble in dimethylformamide, dimethyl sulfoxide, ethyl alcohol, and water

CCN(CCCCCn1c(C)cc(=O)n(CCCCCN(CC)Cc2ccccc2[N+](=O)[O-])c1=O)Cc1ccccc1[N+](=O)[O-] [1,3-bis[5-(ortho-nitrobenzyl-ethylamino)pentyl-1]-6-methyluracil, reference compound]
LD50 (in mice, i.p.) (mice of the CD-1 line [1]): 51 mg/kg | Solubility [4]: insoluble in water | LD50 (background statement) (mice of the CD-1 line [5]): 51.48 mg/kg | Reduction of the number of amyloid deposits in the cerebral cortex [6]: 50%

Br.Br.CCN(CCCCCn1c(C)cc(=O)n(CCCCCN(CC)Cc2ccccc2[N+](=O)[O-])c1=O)Cc1ccccc1[N+](=O)[O-] [Compound (1), 1,3-bis[5-(ortho-nitrobenzylethylamino)pentyl]-6-methyluracil dihydrobromide]
LD50 (in mice, i.p.) (mice of the CD-1 line [1]): 199 mg/kg | LD50 (in mice, p.o.) (mice of the CD-1 line [1]): 520 mg/kg | Times less toxic than donepezil hydrochloride, oral (mice of the CD-1 line [1]): 12 times | Times less toxic than donepezil hydrochloride, intraperitoneal (mice of the CD-1 line [1]): 40 times | Times less toxic than the free base (mice of the CD-1 line [1]): ~4 times | Correction of memory impairment [2]: effective for correction of memory impairment | Effect on the number of amyloid plaques in the cortex [3]: more effective product for prevention of the formation of amyloid plaque than donepezil hydrochloride | Solubility [4]: soluble in chloroform, dimethylformamide, dimethyl sulfoxide, ethyl alcohol, and water
